Positions count from the first letter of the chain named.
What was measured:
[1] = target: T1, PPO2 R128E ΔG210 (Amaranthus tuberculatus, UniProt Q0NZW9, DEL210/R128E); assay: biochemical; type: biochemical
T1 sequence (Q0NZW9 with tags, fused parts or gaps R128E/DEL210): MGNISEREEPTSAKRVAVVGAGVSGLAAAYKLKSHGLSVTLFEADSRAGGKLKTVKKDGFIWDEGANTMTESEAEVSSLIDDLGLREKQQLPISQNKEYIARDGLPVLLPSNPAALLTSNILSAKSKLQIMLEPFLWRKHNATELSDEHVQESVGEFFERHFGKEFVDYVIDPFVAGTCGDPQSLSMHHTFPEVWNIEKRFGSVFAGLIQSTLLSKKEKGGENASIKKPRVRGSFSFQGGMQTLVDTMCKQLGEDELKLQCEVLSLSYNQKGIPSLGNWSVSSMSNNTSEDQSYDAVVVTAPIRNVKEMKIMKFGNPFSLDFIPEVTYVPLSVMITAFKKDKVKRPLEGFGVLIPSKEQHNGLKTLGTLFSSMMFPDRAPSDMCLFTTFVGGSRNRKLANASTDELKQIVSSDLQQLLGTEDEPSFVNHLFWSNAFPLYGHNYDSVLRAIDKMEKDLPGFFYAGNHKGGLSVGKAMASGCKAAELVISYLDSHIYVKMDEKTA

[2] = target: T2, PPO2 ΔG210 (Amaranthus tuberculatus, UniProt Q0NZW9, DEL210-210); type: biochemical
T2 sequence (Q0NZW9 with tags, fused parts or gaps DEL210-210): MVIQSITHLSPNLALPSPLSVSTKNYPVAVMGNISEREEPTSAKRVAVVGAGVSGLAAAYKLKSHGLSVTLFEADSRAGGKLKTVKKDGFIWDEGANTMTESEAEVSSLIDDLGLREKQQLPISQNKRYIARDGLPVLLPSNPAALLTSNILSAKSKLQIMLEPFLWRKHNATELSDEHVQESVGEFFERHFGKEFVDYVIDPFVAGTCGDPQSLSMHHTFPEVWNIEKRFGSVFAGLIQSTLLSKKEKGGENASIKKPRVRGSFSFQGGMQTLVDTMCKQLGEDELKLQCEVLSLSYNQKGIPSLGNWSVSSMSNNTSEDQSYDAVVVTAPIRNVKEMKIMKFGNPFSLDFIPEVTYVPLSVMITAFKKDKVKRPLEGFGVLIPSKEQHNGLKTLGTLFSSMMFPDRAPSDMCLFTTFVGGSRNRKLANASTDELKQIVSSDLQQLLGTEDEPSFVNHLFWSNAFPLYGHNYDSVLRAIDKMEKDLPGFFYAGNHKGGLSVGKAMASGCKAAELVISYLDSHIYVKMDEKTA

[3] = target: T3, PPO2 R128H ΔG210 in Escherichia coli hemG (Amaranthus tuberculatus, UniProt Q0NZW9, DEL210/R128H, cells depend on it); type: cell-based; conditions: read-out: IC50 (E. coli hemG growth)
T3 sequence (Q0NZW9 with tags, fused parts or gaps R128H/DEL210): T2 sequence (Q0NZW9 with tags, fused parts or gaps DEL210-210) with R128H

[4] = target: T4, PPO2 R128M ΔG210 (Amaranthus tuberculatus, UniProt Q0NZW9, DEL210-210/R128M); assay: biochemical; type: biochemical
T4 sequence (Q0NZW9 with tags, fused parts or gaps R128M/DEL210-210): T1 sequence (Q0NZW9 with tags, fused parts or gaps R128E/DEL210) with E98M

[5] = target: T5, PPO2 R128A ΔG210 (Amaranthus tuberculatus, UniProt Q0NZW9, DEL210/R128A); assay: biochemical; type: biochemical
T5 sequence (Q0NZW9 with tags, fused parts or gaps R128A/DEL210): T1 sequence (Q0NZW9 with tags, fused parts or gaps R128E/DEL210) with E98A

| Compound | IC50 [1] [nM] | IC50 [2] [nM] | IC50 [3] [nM] | IC50 [4] [nM] | IC50 [5] [nM] | Resistance factor [1] | Resistance factor [2] | Resistance factor [5] | Resistance factor [4] |
| --- | --- | --- | --- | --- | --- | --- | --- | --- | --- |
| CCOC(=O)C(C)OC(=O)c1cc(Oc2ccc(C(F)(F)F)cc2Cl)ccc1[N+](=O)[O-] (stereo not shown) [Lactofen, lactofen] | 649 | 544 | > 10000 | > 10000 | – | – | – | – | – |
| CS(=O)(=O)NC(=O)c1cc(Oc2ccc(C(F)(F)F)cc2Cl)ccc1[N+](=O)[O-] [Fomesafen, fomesafen] | > 10000 | > 10000 | – | > 10000 | > 10000 | – | – | – | – |
| CC(C)N(C)S(=O)(=O)NC(=O)c1cc(-n2c(=O)cc(C(F)(F)F)n(C)c2=O)c(F)cc1Cl [Saflufenacil, saflufenacil] | > 10000 | 2040 | > 10000 | > 10000 | > 10000 | – | – | – | – |
| C#CCN1C(=O)C(F)(F)Oc2cc(F)c(-n3c(=O)n(C)c(=S)n(C)c3=O)cc21 [Trifludimoxazin, trifludimoxazin] | 8.61 | 1.83 | 90 | 182 | 33 | 35 | 7 | 135 | 743 |

From paper PMC10092844, “Inhibition profile of trifludimoxazin towards PPO2 target site mutations” (Pest Management Science, 2022)
